Reference: US9040524B2, “Antifungal 5,6-dihydro-4H-pyrrolo[1,2-a][1,4]-benzodiazepines and 6H-pyrrolo[1,2-a][1,4]benzodiazepines substituted with bicycle benzene derivatives” (JANSSEN PHARMACEUTICA NV, priority 2010, dated 2015)

Experiments:
Scedosporium apiospermum = assay: Antifungal activity in vitro, resazurin growth inhibition screen: Scedosporium apiospermum; assay type: cell-based; settings: Scedosporium apiospermum IHEM3817; read-out: Inf. H pIC50 (converted)
Procedure: (§1) The standard susceptibility screen was performed in 96-well plates (U-bottom, Greiner Bio-One). Serial dilutions (2-fold or 4-fold) of 20 mM compound stock solutions were made in 100% DMSO, followed by an intermediate dilution step in water. These serial dilutions (10 μl) were then spotted onto test-plates that could be stored in the dark at 4° C. for a maximum period of 2 weeks. An adequate broad dose-range was included with 64 μM as the highest in-test concentration. […] The different fungal species/isolates (Table 3a) were cryopreserved and 1/1000 diluted in medium just prior to use. A standard inoculum of 200 μl containing 10^3 colony-forming unit (cfu) was then added to each well. A positive control (100% growth=fungal culture without antifungal) and a negative control (0% growth=RPMI-MOPS medium) were included on each plate.

Candida parapsilosis = assay: Antifungal activity in vitro, resazurin growth inhibition screen: Candida parapsilosis; assay type: cell-based; settings: Lodderomyces parapsilosis; Candida parapsilosis B66126; read-out: Inf. D pIC50 (converted)
Method in brief: (§2)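 In this broth screen, 10^3 cfu of each cryopreserved isolate met compound dilutions reaching 64 μM at most. Viability was read with resazurin.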

Microsporum canis = assay: Antifungal activity in vitro, resazurin growth inhibition screen: Microsporum canis; assay type: cell-based; settings: Microsporum canis B68128; read-out: Inf. B pIC50 (converted)
Method in brief: as §2

Trichophyton rubrum = assay: Antifungal activity in vitro, resazurin growth inhibition screen: Trichophyton rubrum; assay type: cell-based; settings: Trichophyton rubrum B68183; read-out: Inf. C pIC50 (converted)
Method in brief: as §2

[1] = test system: Trichophyton mentagrophytes; assay: Antifungal activity in vitro, resazurin growth inhibition screen: Trichophyton mentagrophytes; assay type: cell-based; settings: Trichophyton mentagrophytes B70554; read-out: Inf. G pIC50 (converted)
Method in brief: as §2

Cryptococcus neoformans = assay: Antifungal activity in vitro, resazurin growth inhibition screen: Cryptococcus neoformans; assay type: cell-based; settings: Cryptococcus neoformans B66663; read-out: Inf. F pIC50 (converted)
Method in brief: as §2

Aspergillus fumigatus = assay: Antifungal activity in vitro, resazurin growth inhibition screen: Aspergillus fumigatus; assay type: cell-based; settings: Aspergillus fumigatus B42928; read-out: Inf. E pIC50 (converted)
Method in brief: as §2

Rhizopus oryzae = assay: Antifungal activity in vitro, resazurin growth inhibition screen: Rhizopus oryzae; assay type: cell-based; settings: Rhizopus arrhizus; Rhizopus oryzae IHEM5223; read-out: Inf. J pIC50 (converted)
Procedure: as §1

Scedosporium prolificans = assay: Antifungal activity in vitro, resazurin growth inhibition screen: Scedosporium prolificans; assay type: cell-based; settings: Lomentospora prolificans; Scedosporium prolificans IHEM21157; read-out: Inf. I pIC50 (converted)
Procedure: as §1

Rhizomucor miehei = assay: Antifungal activity in vitro, resazurin growth inhibition screen: Rhizomucor miehei; assay type: cell-based; settings: Rhizomucor miehei IHEM13391; read-out: Inf. K pIC50 (converted)
Procedure: as §1

Sporothrix schenkii = assay: Antifungal activity in vitro, resazurin growth inhibition screen: Sporothrix schenkii; assay type: cell-based; settings: Sporothrix schenkii B62482; read-out: Inf. A pIC50 (converted)
Method in brief: as §2

Row | SMILES | IC50 (Scedosporium apiospermum) [nM] | IC50 (Candida parapsilosis) [nM] | IC50 (Microsporum canis) [nM] | IC50 (Trichophyton rubrum) [nM] | IC50 [1] [nM] | melting point [°C] | IC50 (Cryptococcus neoformans) [nM] | IC50 (Aspergillus fumigatus) [nM] | IC50 (Rhizopus oryzae) [µM] | IC50 (Scedosporium prolificans) [nM] | IC50 (Rhizomucor miehei) [µM] | IC50 (Sporothrix schenkii) [µM]
1 | Cl.Clc1cccc2c1CNC(c1ccc3c(c1)CCC3)c1cccn1-2 (centres unmarked) [Compound 12, 7-chloro-4-(2,3-dihydro-1H-inden-5-yl)-5,6-dihydro-4H-pyrrolo[1,2-a][1,4]benzo-diazepine .HCl] | > 64600 | 575 | 380 | 138 | 58.9 | 242.7 to 243.5 | 3020 | 151 | > 64.6 | > 64600 | > 64.6 | 64.6
2 | Clc1cccc2c1CN=C(c1ccc3c(c1)CCC3)c1cccn1-2 [Compound 20, 7-chloro-4-(2,3-dihydro-1H-inden-5-yl)-6H-pyrrolo[1,2-a][1,4]benzodiazepine] | 8910 | 339 | 129 | 70.8 |  | 181.3 to 182.7 | 380 | 269 | > 11.2 | 851 | 13.8 | 2
3 | Clc1cccc2c1CN=C(c1ccc3c(c1)CCCC3)c1cccn1-2 [Compound 21, 7-chloro-4-(5,6,7,8-tetrahydro-2-naphthalenyl)-6H-pyrrolo[1,2-a][1,4]benzo-diazepine] | 120 | 1410 | 490 | 170 | 603 | 180 to 181.5 | 339 | 46.8 | 2 | 39.8 | 0.933 | 1.38
4 | Clc1cccc2c1CN=C(c1ccc3c(c1)CCO3)c1cccn1-2 [Compound 35, 7-chloro-4-(2,3-dihydro-5-benzofuranyl)-6H-pyrrolo[1,2-a][1,4]benzodiazepine] | 38900 | 2000 | 1000 | 437 | 794 | 206.4 to 208.9 | 5010 | 2000 | > 64.6 | 1290 | 53.7 | 14.1
5 | Clc1cccc2c1CN=C(c1ccc3c(c1)OCC3)c1cccn1-2 [Compound 36, 7-chloro-4-(2,3-dihydro-6-benzofuranyl)-6H-pyrrolo[1,2-a][1,4]benzodiazepine] | 2820 | 20900 | 676 | 132 | 240 | 180.5 to 181.2 | 50100 | 2000 | > 64.6 | 1200 | > 64.6 | 12.9
6 | Clc1cc(Cl)c2c(c1)-n1cccc1C(c1ccc3c(c1)CCO3)=NC2 [Compound 45, 7,9-dichloro-4-(2,3-dihydro-5-benzofuranyl)-6H-pyrrolo[1,2-a][1,4]benzodiazepine] | 32400 | 7940 | 257 | 331 | 331 | 190 to 191.8 | 1000 | 1000 | > 64.6 | 6170 | > 64.6 | 3.02
7 | O=C1CCc2cc(C3=NCc4c(Cl)cccc4-n4cccc43)ccc21 [Compound 56, 5-(7-chloro-6H-pyrrolo[1,2-a][1,4]benzodiazepin-4-yl)-2,3-dihydro-1H-inden-1-one] | 447 | 2880 | 170 | 182 | 562 | 226.7 to 227.6 | 1320 | 363 | > 64.6 | 110 | 4.79 | 2.24
8 | O=C1CCCc2cc(C3=NCc4c(Cl)cccc4-n4cccc43)ccc21 [Compound 58, 6-(7-chloro-6H-pyrrolo[1,2-a][1,4]benzodiazepin-4-yl)-3,4-dihydro-1(2H)-naphthalenone] | 5890 | > 64600 | 166 | 204 | 324 | 209.8 to 210.7 | 417 | 135 | 49 | 9330 | 6.92 | 2.14
9 | O=C1OCc2ccc(C3=NCc4c(F)cccc4-n4cccc43)cc21 [Compound 63, 6-(7-fluoro-6H-pyrrolo[1,2-a][1,4]benzodiazepin-4-yl)-1(3H)-isobenzofuranone] | 933 | > 64600 | 55000 | 7410 | > 64600 | 224.6 to 246 | > 64600 | > 64600 | > 64.6 | 1580 | > 64.6 | > 64.6
10 | O=C1OCc2cc(C3=NCc4c(Cl)cccc4-n4cccc43)ccc21 [Compound 65, 5-(7-chloro-6H-pyrrolo[1,2-a][1,4]benzodiazepin-4-yl)-1(3H)-isobenzofuranone] | 759 | 5130 | 2040 | 1820 | 1910 | 251.2 to 253 | 10200 | 372 | > 64.6 | 589 | > 64.6 | 7.76
11 | FC1(F)CCc2cc(C3=NCc4c(Cl)cccc4-n4cccc43)ccc2O1 [Compound 69, 7-chloro-4-(2,2-difluoro-3,4-dihydro-2H-1-benzopyran-6-yl)-6H-pyrrolo[1,2-a]-[1,4]benzodiazepine] | 229 | 708 | 129 | 123 | 380 | 199.7 to 201.2 | 95.5 | 129 | 1.2 | 708 | 0.468 | 1.05
12 | Cn1c(=O)oc2ccc(C3=NCc4c(Cl)cccc4-n4cccc43)cc21 [Compound 80, 5-(7-chloro-6H-pyrrolo[1,2-a][1,4]benzodiazepin-4-yl)-3-methyl-2(3H)-benzoxazolone] | 56200 | 22400 | 1580 | 1150 | 5370 | 218.6 to 221 | > 64600 | 562 | > 64.6 | 22400 | > 64.6 | 9.12
13 | Fc1cc(Cl)c2c(c1)-n1cccc1C(c1ccc3c(c1)CCC3(F)F)=NC2 [Compound 88, 7-chloro-4-(1,1-difluoro-2,3-dihydro-1H-inden-5-yl)-9-fluoro-6H-pyrrolo[1,2-a]-[1,4]benzodiazepine] | 170 | > 64600 | 537 | 447 | 871 | 170.2 to 171.8 | 407 | 417 | > 64.6 | 2570 | > 64.6 | 53.7
